Consider eleven compounds from ChEMBL document CHEMBL1122802, “Pyrido[3',2':4,5]thieno[3,2-d]-N-triazines: a new series of orally active antiallergic agents” (J Med Chem, 1984).

The species entered for assay [1] is Rattus norvegicus. The experiment in a line: Evaluated on antigen induced release of histamine (AIR) in vitro from rat peritoneal mast cells (RMC) at multiple dose levels. Format: functional, cell-based. To be noted: Mast cell, read-out: I 50.
For assay [2], the species on record is Rattus norvegicus. The experiment in a line: Effective dose required for inhibition of passive cutaneous anaphylaxis (PCA) in the rat at multiple dose levels. Type of assay: functional.
Assay [3] has as its system Rattus norvegicus. The experiment in a line: Inhibition of passive cutaneous anaphylaxis (PCA) in the rat at 25 mg /kg.(orally). Type of assay: functional. Particulars: po.
Assay [4] relates to Rattus norvegicus. Kind of assay: Percent inhibition of antigen induced release of histamine (AIR) in vitro from rat peritoneal mast cells (RMC) […]. Format: functional.
The test system of assay [5] is Rattus norvegicus. Kind of assay: Percent inhibition of antigen induced release of histamine (AIR) in vitro from rat peritoneal mast cells (RMC) […]. Type of assay: functional.
The test system of assay [6] is Rattus norvegicus. The experiment in a line: Inhibition of passive cutaneous anaphylaxis (PCA) in the rat at 30 mg /kg.(orally). Type of assay: functional. To be noted: po.

Molecules are shown by their SMILES.

In the case of `Cc1cc(C)c2c(n1)sc1c(O)nnnc12`, in the assay listed under Rattus norvegicus [1], the IC50 turned out to be 80 µM. Besides, it took a dose of 3.6 mg/kg to reach the 50% effect level in the assay filed under Rattus norvegicus [2] (ED50). In addition, in the assay with Rattus norvegicus [3], 25 mg/kg produced 70% inhibition in vivo.
As to `COC(=O)NNc1nnnc2c1sc1nc(C)ccc12`, the inhibition in vivo at 25 mg/kg with Rattus norvegicus [3] amounted to 5%. The compound also had an I with Rattus norvegicus [4] of 21%.
For `CSc1nnnc2c1sc1nc(C)ccc12`, in the assay on Rattus norvegicus [5], the I came to 4%.
As to `Cc1ccc2c(n1)sc1c(O)nnnc12`, the IC50 in the assay filed under Rattus norvegicus [1] worked out at 0.25 µM. In the assay listed under Rattus norvegicus [2], this compound showed an ED50 of 5.2 mg/kg. Also, the inhibition in vivo at 25 mg/kg with Rattus norvegicus [3] is 88%.
For `Cc1ccc2c(n1)sc1cnnnc12`, the IC50 in the assay filed under Rattus norvegicus [1] was determined as 29 µM. This compound also returned a median effective dose (ED50) in the assay listed under Rattus norvegicus [2] of 1.5 mg/kg. In the assay with Rattus norvegicus [3], the inhibition in vivo at 25 mg/kg was determined as 93%.
`Oc1nnnc2c1sc1nc(-c3ccccc3)ccc12` came in with an inhibition in vivo at 30 mg/kg in the assay with Rattus norvegicus [6] of 68%. In addition, the IC50 in the assay filed under Rattus norvegicus [1] is 0.05 µM. In the assay filed under Rattus norvegicus [2], this compound came in with a 50% effective dose (ED50) of 3 mg/kg.
Consider `Cc1ccc2c(n1)sc1c(N)nnnc12`, for which the IC50 in the assay filed under Rattus norvegicus [1] amounted to 1.7 µM. In the assay on Rattus norvegicus [3], at 25 mg/kg the inhibition in vivo was 38%.
On to `CNc1nnnc2c1sc1nc(C)ccc12`, for which, in the assay filed under Rattus norvegicus [1], the IC50 came out at 11 µM. In the assay with Rattus norvegicus [3], this compound gave an inhibition in vivo at 25 mg/kg of 32%.
`CCOc1nnnc2c1sc1nc(C)ccc12` yielded an ED50 in the assay listed under Rattus norvegicus [2] of 27 mg/kg. The compound further yielded an inhibition in vivo at 25 mg/kg in the assay on Rattus norvegicus [3] of 52%. Moreover, the I in the assay with Rattus norvegicus [5] turned out to be 18%.
Turning to `CCOCOc1nnnc2c1sc1nc(C)ccc12`, the IC50 in the assay listed under Rattus norvegicus [1] amounted to 6 µM. The compound also showed an inhibition in vivo at 25 mg/kg in the assay with Rattus norvegicus [3] of 22%.
As to `Cc1ccc2c(n1)sc1c(S)nnnc12`, the IC50 in the assay filed under Rattus norvegicus [1] stood at 0.1 µM.
